What was measured:
[1] = test system: mouse fibroblast cell line L292; assay: Cytotoxicity measured as inhibition of the growth of mouse fibroblast cells; format: cell-based; details: for Lowest concentration of furanones which significantly inhibited the growth of mouse fibroblast cell line: 30% depression of growth deemed significant
Protocol: (§1) All initial screening of six different furanones against growth of Staphylococcus aureus and Staphylococcus epidermidis was performed in a BioRad 3550 Microplate Reader. Ten percent (10%) of an overnight culture (10^8 cells/ml, resulting in final cell densities of 10^6 cells/ml) was added to the growth media. Nutrient Broth, containing furanones at the concentrations 10 and 1 μg/ml. The bacteria were incubated at 37° C. and growth was measured at […] for 9 hours. Cytotoxicity in mammalian systems was measured as inhibition of the growth of mouse fibroblast cells.

[2] = test system: Staphylococcus aureus; assay: Initial screening against growth in Nutrient Broth, microplate reader, 9 hours; format: cell-based; details: for % growth compared to the control value: after 9 hr
Protocol: as §1

[3] = test system: Staphylococcus epidermidis; assay: as above; format: cell-based; details: for % growth compared to the control value: after 9 hr
Protocol: as §1

[4] = test system: Staphylococcus aureus; assay: Screening against growth in NB, microplate reader, 24 hours; format: cell-based; details: 10 μg/ml, after 24 hr
Protocol: (§2) A screening of six different furanone compounds against growth of Staphylococcus aureus, Staphylococcus epidermidis. Streptococcus salivarius, Streptococcus pyogenes, Enterococcus faecalis and Micrococcus luteus was performed in) a BioRad 3550 Microplate Reader. Ten percent of overnight cultures were added to the growth media. NB containing furanones at the concentration 10 μg/ml. The bacteria were incubated at 37° C. and growth was measured at 595 nm for 24 hours.

[5] = test system: Streptococcus salivarius; assay: as above; format: cell-based; details: 10 μg/ml, after 24 hr
Protocol: as §2

[6] = test system: Staphylococcus epidermidis; assay: as above; format: cell-based; details: 10 μg/ml, after 24 hr
Protocol: as §2

[7] = test system: Streptococcus pyogenes; assay: as above; format: cell-based; details: 10 μg/ml, after 24 hr
Protocol: as §2

[8] = test system: Micrococcus luteus; assay: as above; format: cell-based; details: 10 μg/ml, after 24 hr
Protocol: as §2

[9] = test system: Enterococcus faecalis; assay: as above; format: cell-based; details: 10 μg/ml, after 24 hr
Protocol: as §2

[10] = test system: Corynebacterium 003; assay: Effect on the growth of ocular bacteria in TSB; format: cell-based, Corynebacterium sp; details: for Percentage growth compared to the control values: after 24 h, TSB
Protocol: (§3) Strains were cultured in 5 ml of TSB with or without SUs in 35° C. water bath with agitation (120 rpm). Growth rates were monitored by reading OD660nm at time intervals of 1, 2, 3, 4, 5, 7, and 24 hours.

[11] = test system: S. aureus 015; assay: Effect on the growth of ocular bacteria in TSB; format: cell-based; details: for Effect on growth curves: S. aureus strains, FIGS. 3 to 5
Protocol: as §3

[12] = test system: S. epidermidis 017; assay: Effect on the growth of ocular bacteria in TSB; format: cell-based; details: for Percentage growth compared to the control values: after 24 h, TSB; for Effect on growth curves: S. epidermidis strains, FIGS. 3 to 5
Protocol: as §3

Structure (SMILES)	Lowest concentration of furanones which significantly inhibited the growth of mouse fibroblast cell line [1] [µg/mL]	% growth compared to the control value ([2]; 1 μg/ml) [%]	% growth compared to the control value ([2]; 10 μg/ml) [%]	% growth compared to the control value ([3]; 1 μg/ml) [%]	% growth compared to the control value ([3]; 10 μg/ml) [%]	% growth compared to the control value [4] [%]	% growth compared to the control value [5] [%]	% growth compared to the control value [6] [%]	% growth compared to the control value [7] [%]	% growth compared to the control value [8] [%]	% growth compared to the control value [9] [%]	other results
CCCC(OC(C)=O)C1=C(Br)C(=CBr)OC1=O (stereo not drawn) [Compound 4, reference compound]	1	84.2	34.3	77.1	53.2	34	85	53	0	75	75	Toxicity against mammalian cell lines [1]: quite toxic
O=C1C=C(Br)/C(=C/Br)O1 [Compound 30]	20	56.6	0	72.1	62.2	0	73	62	50	86	54	Effect on growth ([10]; 10 μg/ml): only slowed down the growth; Percentage growth compared to the control values ([10]; 10 μg/ml): 90%; Growth reached ([10]; 20 μg/ml (as printed in text), after 24 h incubation): 90%; Inhibition of growth ([2]; 10 ug/ml): completely inhibiting growth; Inhibition of growth ([3]; 10 ug/ml): completely inhibiting growth; Percentage growth compared to the control values ([11]; 10 μg/ml, after 24 h, TSB): 97%; Effect on growth curves ([11]; 10 μg/ml): only slowed down the growth; Percentage growth compared to the control values ([12]; 10 μg/ml): 91%; Effect on growth curves ([12]; 10 μg/ml): only slowed down the growth
CCCCC1=C(Br)C(=CBr)OC1=O [Compound 2]	150	87.9	57.9	63.7	53.2	58	86	53	87	86	77	Inhibition of growth ([10]; 100 μg/ml): approximately 86%; Percentage growth compared to the control values ([10]; 100 μg/ml): 14%; Effect on growth curves ([11]; 100 μg/ml): inhibited the growth; Percentage growth compared to the control values ([12]; 100 μg/ml): 7%; Effect on growth curves ([12]; 100 μg/ml): inhibited the growth
CCCC(F)C1=C(Br)/C(=C/Br)OC1=O (stereo not drawn) [Compound 45]	–	–	–	–	–	4	69	22	26	100	85	–
